The text below walks through data of patent publication US10857112B2, “Small molecule inhibitors of RNA binding motif (RBM) proteins for the treatment of acute cellular injury” (University of Pittsburgh—Of the Commonwealth System of …, priority 2012, dated 2020).

In one data set the test system is mice. The note with it: IP 100, 200 or 400 mg/kg; cited from earlier work.
For data set [1], the system named is primary rat cortical neurons. Nature of the data set: H2O2 injury, neuronal viability 24 h (CellTiter-Blue). The settings on record: 40 μM H2O2. In general terms: The colour change of resazurin is a common sign of viable cells or microbes.
The subject of data set [2] is primary rat cortical neurons. The data set can be described thus: Glutamate excitotoxic injury, neuron viability. The data set is classed as cell-based. The settings on record: 5 μM glutamate 5 minute; post-injury 125 μM; 24 hours. On the procedure:
Drugs (AQ2S and MK801) were dissolved in 100% DMSO (vehicle). Rat cortical neurons were isolated from E17 embryos, and seeded onto 96-well plates at a density of 1.5×10^5/well. At day-in-vitro 8 (D.I.V. 8) culture maintenance media was replaced with treatment media (Modified Eagles Buffered Solution) without or with 5 μM Glutamate. After a 5 minute injury in treatment solution, cells were returned to normal culture maintenance media conditions (Neurobasal/B27 supplement) with either: 1) DMSO, 2) 125 μM AQ2S or 3) MK801; MK801 is an NMDA receptor channel blocker and classic neuroprotectant in this injury paradigm. Neuron viability was measured 24 hours post-injury by incubation with CellTiter Blue reagent (PROMEGA) for 2 hours. CellTiter Blue is metabolized into a fluorescent reagent only in living cells. The level of fluorescence (expressed as relative fluorescent units; RFU) was measured on a plate reader (PROMEGA).
Primary rat cortical neurons were grown onto 96-well plates. Neurons were treated with or without 5 μM glutamate. Cells were returned to regular growth media with DMSO, 125 μM AQ2S, or MK801 and viability measured 24 hours later (expressed as relative fluorescent units; RFU). […] Injury (n=7), Glut+AQ2S (n=7) and Glut+MK-801 (n=6). White bar indicated absence of glutamate injury. […] Data were analyzed by ANOVA (p<0.0001); Fisher LSD post-hoc test. * indicates p<0.05. […]

The test system of data set [3] is extracellular regulated kinase (ERK). The data set can be described thus: Western blot of ERK activation. The data set is classed as cell-based, rat. The note with it: 125 μM; 17 hours STS. On the procedure:
To determine the specificity of AQ2S mediated signaling changes, extracellular regulated kinase (ERK) was also examined. 17 hours STS abolished ERK activation.
Neurons used for Western blot analysis for grown in 6-well plates. Briefly, neurons were treated with experimental compounds for the indicated time/conditions. At the end of each experiment, neurons were washed in ice cold PBS and harvested in 65 μL RIPA buffer containing protease inhibitors, phosphatase inhibitors, and EDTA. Extracts were collected in 0.5 mL tubes and sonicated for 20-30 seconds. Cell extracts were then spun at 4° C./16,000 g/10 minutes and stored at −80° C. until use. Frozen extracts were thawed on ice and protein concentration measured using the BCA assay (PIERCE). […] of sample protein was loaded per well of a 7.5% SDS precast gel (Biorad), and run for 30 minutes to 1 hour at 200 V. Kaleidoscope protein standards (Biorad) were run parallel to neuron extracts. Proteins were then transferred to PDVF membranes (run at 100 V/4° C./1.5 hours). PDVF membranes were washed once in tris buffered saline (TBS) and blocked for 1 hour in tris buffered saline/tween-20 with 7.5% nonfat milk (TBS-T/milk). Blots were incubated overnight at 4° C. with primary antibodies in TBS-T/milk. Cell Signaling Technology: phospho-AKT473, AKT Total, phospho-ERK1/2, ERK Total, cleavage caspase-3. […]
Background: In western blotting, separated proteins are transferred to a membrane and probed.

The next data set deals with caspase-3. Nature of the data set: STS-induced caspase-3 (3/7) activity in neurons. The data set is classed as cell-based, rat. On the procedure:
The Caspase3/7-GLO assay uses the exact same reagents as the CellTiter-GLO assay accept for the addition of a luciferin substrate crosslinked to an amino acid caspase cleavage target. Activation of caspases frees luciferin. Luciferin can then be oxidized by luciferase, thereby initiating a light reaction. Luminescence was measured using a luminometer.

In another data set the test system is caspase-8. Nature of the data set: STS-induced caspase-8 activity in neurons. The settings on record: 150 nM STS 24 hours; co-treatment 75 μM. The data set is classed as cell-based, rat.
In another data set the test system is caspase3/7. The data set can be described thus: Stretch injury induced caspase3/7 activity. The data set is classed as cell-based, rat. The settings on record: 75 μM pre-treated 30 minutes; 24 hours after injury. On the procedure: Rat cortical neurons are isolated from E16 embryos, and plated on silicone membranes (with defined elastic properties) held in a custom made stainless steel chamber. DIV 7-9 neurons are subjected to a (computer controlled) preset stretch injury; strain rate 10 s^−1 and 50% membrane deformation. AQ2S or DMSO (vehicle control) was added before (pre-treatment) or after post-treatment) injury, Cell death was assayed ˜24 hours after injury by measuring 1) extracellular LDH in the culture media (released from dying/dead cells), 2) caspase-3/7 activation (a protease involved in execution of cell death), and 3) MTT metabolism (a reagent metabolized by living cells).
Caspase activation plays a role in cell death after TBI. Primary rat cortical neurons were grown on a custom made stretch-injury device (An in vitro model of TBI). Neurons were pre-treated with 75 μM AQ2S or vehicle only (DMSO control) for 30 minutes, and subjected to a defined stretch injury. 24 hours after injury caspase3/7 activity was measured. […] (C) In a third experiment, AQ2S was administered 30 minutes before (pre-treatment) or 30 minutes after (post-treatment) stretch-TBI (FIG. 19C) (Experiment 3, n=3/treatment). Data was analyzed using ANOVA and Fisher LSD post-hoc test. Data is significant at (*) p<0.05. Graphs show Mean+SEM.

For `O=C1c2ccccc2C(=O)c2cc(S(=O)(=O)O)ccc21` [AQ2S, anthraquinone-2-sulfonic acid], in the data set on mice, the survival entry is recorded as “all animals survived to toxicology day 5” and the tumor formation result is “did not inhibit tumor formation”. Moreover, the “neuronal death after H2O2 injury” value in data set [1] (post-treatment 50 μM, 24 h) was “significantly reduced H2O2 induced cell death”. The “neuronal death after H2O2 injury” value in data set [1] (post-treatment 75 μM, 24 h after injury) was “potently prevented cell death”. In addition, the “viability after glutamate injury” value in data set [2] was “significantly protects neurons from glutamate induced cell death”. Further, the ERK activation entry in data set [3] is recorded as “did not prevent STS-mediated ERK inhibition”. Besides, the caspase-3 activity result in the data set with caspase-3 (150 nM STS 24 hours, co-treatment 75 μM) is “significantly reduced baseline and injury activity levels”. For the same compound, in the data set with caspase-3 (250 nM STS 24 hours), the “STS-induced caspase-3 activation” value is listed as “completely blocked STS-induced caspase-3 activation”. Also, the “potency among caspase-3, -8 and -9” value with caspase-3 (75 μM) was “greatest potency against caspase-3”. For the same compound, the caspase-8 activity result with caspase-8 was “significantly reduced baseline and injury activity levels”. For the same compound, in the data set on caspase3/7, the “stretch injury induced caspase3/7 activity” value is “significantly reduced caspase activation”.
